This note sets out measurements from doi:10.1101/2022.09.13.507756v1 (biorxiv, 2022).

As a reminder, the Km is the substrate concentration at which the rate is half of its maximum.

Like-named read-outs stand apart in the source and are kept apart here.

Assay [1] deals with AncCDT-5. The settings on record: 50 mM Na2HPO4, 25 °C, 100 nM enzyme.
Assay [2] has as its system AncCDT-5. Particulars: 50 mM Na2HPO4, 25 °C, 100 nM enzyme; prephenate dehydratase reaction.

On to `O=C(O)C(=O)CC1(C(=O)O)C=CC(O)C=C1` (centres unmarked) [prephenate], for which the Km in the assay on AncCDT-5 [1] amounted to 178 ± 27.1 µM; with AncCDT-5 [2] it was 169 ± 22.9 µM.
